Experiment [1] relates to Pyricularia oryzae. Nature of the experiment: Fungicidal activity against Magnaporthe oryzae from perennial ryegrass. The experiment is classed as functional. To be noted: read-out: ED50 (the source's name).
For experiment [2], the system named is Pyricularia oryzae. Nature of the experiment: microbe, parasite or virus in culture. The note with it: for EC50: Pyricularia oryzae, 168 h, read-out: ED50 (the source's name). It is filed as functional.
For experiment [3], the system named is Pyricularia oryzae. In words: Fungicidal activity against Magnaporthe oryzae assessed as reduction of appressorium diameter of conidia at 0.01 to 1 mg/l at 26 degC measured after 7 days. It is filed as functional, organism-based.
The test system of the next experiment is Pyricularia grisea. Nature of the experiment: Fungicidal activity against Magnaporthe grisea. It is filed as functional. To be noted: read-out: ED50 (the source's name).
The subject of experiment [4] is Pyricularia oryzae. Nature of the experiment: Fungicidal activity against Magnaporthe oryzae assessed as germination of conidia at 0.01 mg/l at 26 degC measured after 7 days. The experiment is classed as functional, organism-based.
The subject of experiment [5] is Pyricularia oryzae. In words: microbe, parasite or virus in culture. To be noted: 168 h. The experiment is classed as functional, organism-based.
The test system of experiment [6] is Pyricularia oryzae. In words: Fungicidal activity against Magnaporthe oryzae assessed as germination of conidia at 1 mg/l at 26 degC measured after 7 days. It is filed as functional.
The test system of experiment [7] is Pyricularia oryzae. In words: microbe, parasite or virus in culture. It is filed as functional. The note with it: 168 h.
In experiment [8] the test system is Pyricularia oryzae. In words: microbe, parasite or virus in culture. To be noted: 168 h, read-out: INH.

In brackets after ≈: the same amount, converted by molar mass. Activity calls are given as the source filed them. No cut-off for these calls is given here.

The record followed here is ChEMBL document CHEMBL3044803, “Impact of tricyclazole and azoxystrobin on growth, sporulation and secondary infection of the rice blast fungus, Magnaporthe oryzae” (Pest Manag Sci, 2013).

In the case of `CO/C=C(/C(=O)OC)c1ccccc1Oc1cc(Oc2ccccc2C#N)ncn1` [AZOXYSTROBIN], the EC50 with Pyricularia oryzae [1] turned out to be 0.013 µg/mL (≈ 0.0322 µM); in the experiment on Pyricularia oryzae [2], 0.044 µg/mL (≈ 0.109 µM); in the experiment with Pyricularia grisea it was 1.8 µg/mL (≈ 4.46 µM); in the experiment on Pyricularia oryzae [5], 0.017 µg/mL (≈ 0.0421 µM). For the same compound, in the experiment on Pyricularia oryzae [2], the ED90 is 69.58 µg/mL (≈ 172 µM). In addition, in the experiment with Pyricularia oryzae [3], the result was Active. The result with Pyricularia oryzae [4] was inactive. Also, the Activity in the experiment with Pyricularia oryzae [6] stood at 67.1%. In the experiment on Pyricularia oryzae [7], this compound returned an inhibition at 1 µg/mL of 95%.
`Cc1cccc2sc3nncn3c12` [TRICYCLAZOLE] came in with an ED90 in the experiment on Pyricularia oryzae [2] of 215.64 µg/mL (≈ 1140 µM). The EC50 is 1 µg/mL (≈ 5.31 µM) with Pyricularia oryzae [2] and 0.072 µg/mL (≈ 0.38 µM) in the experiment on Pyricularia oryzae [5]. In the experiment on Pyricularia oryzae [8], the inhibition at 5 µg/mL was determined as 95%.
